Measured values from article PMC10758931 (RSC Advances, 2024).
Values after ≈ are worked out from the molar mass of the structure shown.

Tests used:
MCF-7 cell line = assay: Cytotoxic activity; assay type: cell-based; conditions: for CC50: Homo sapiens, MCF7, read-out: LC50, MCF-7 cell line; for SI (Selectivity index = LC50 value normal cell/LC50 value cancer cell): Vero / MCF-7
normal Vero cell line = assay: Cytotoxic activity; assay type: cell-based; conditions: MTT, mean ± standard error of three experiments

| Compound | CC50 (MCF-7 cell line) [µg/mL] | SI (Selectivity index = LC50 value normal cell/LC50 value cancer cell) (MCF-7 cell line) | LC50, Vero (normal Vero cell line) [µg/mL] | LC50, MCF-7 cell line (MCF-7 cell line; MCF-7, MTT, mean ± standard error of three experiments) [µg/mL] |
| --- | --- | --- | --- | --- |
| COc1cccc2c1C(=O)c1c(O)c3c(c(O)c1C2=O)C[C@@](O)(C(=O)CO)C[C@@H]3O[C@H]1C[C@H](N)[C@H](O)[C@H](C)O1 [Doxorubicin, doxorubicin, reference compound] | 0.65 ± 0.01 (≈ 1.2 µM) | 32.38 |  |  |
| CC(C)=CCCC(C)=CC1c2c(C)nn(-c3ccccc3)c2NN1C(=O)c1ccncc1 (stereo not drawn) [Compound 1g] | 30.82 ± 0.04 (≈ 72.1 µM) |  |  |  |
| Cc1nn(-c2ccccc2)c2c1C(c1c[nH]c3ccccc13)N(C(=O)c1ccncc1)N2 (stereo not drawn) [Compound 1h] | 21.43 ± 0.03 (≈ 51 µM) |  |  |  |
| Cc1nn(-c2ccccc2)c2c1C(c1cncs1)N(C(=O)c1ccncc1)N2 (stereo not drawn) [Compound 1k] | 62.34 ± 0.07 (≈ 160 µM) | 1.25 |  |  |
| COc1ccc(C2c3c(C)nn(-c4ccccc4)c3NN2C(=O)c2ccncc2)cc1 (stereo not drawn) [Compound 1e] | 23.62 ± 0.02 (≈ 57.4 µM) | 3.36 |  |  |
| Cc1nn(-c2ccccc2)c2c1C(c1ccco1)N(C(=O)c1ccncc1)N2 (stereo not drawn) [Compound 1i] | 26.66 ± 0.05 (≈ 71.8 µM) |  |  |  |
| Cc1nn(-c2ccccc2)c2c1C(c1ccc(O)cc1)N(C(=O)c1ccncc1)N2 (stereo not drawn) [Compound 1c] | 70.1 ± 0.05 (≈ 176 µM) | 1.05 |  |  |
| (3-(4-chlorophenyl)-4-methyl-6-phenyl pyrazolo[3,4-c]pyrazol-2(1H,3H,6H)-yl)(pyridin-4-yl)methanone [Compound 1a] |  |  | 55.02 ± 0.11 | 78.10 ± 0.02 |
| Cc1nn(-c2ccccc2)c2c1C(c1ccccn1)N(C(=O)c1ccncc1)N2 (stereo not drawn) [Compound 1j] | 57.34 ± 0.08 (≈ 150 µM) | 1.45 |  |  |
| Cc1nn(-c2ccccc2)c2c1C(c1ccc([N+](=O)[O-])cc1)N(C(=O)c1ccncc1)N2 (stereo not drawn) [Compound 1d] | 91.1 ± 0.06 (≈ 214 µM) | 0.91 |  |  |
| Cc1nn(-c2ccccc2)c2c1C(c1ccc(N(C)C)cc1)N(C(=O)c1ccncc1)N2 (stereo not drawn) [Compound 1f] | 19.92 ± 0.01 (≈ 46.9 µM) | 4.12 |  |  |
| Cc1nn(-c2ccccc2)c2c1C(c1ccc(Cl)cc1)N(C(=O)c1ccncc1)N2 (stereo not drawn) [Compound 1b] | 22.1 ± 0.04 (≈ 53.1 µM) | 2.95 |  |  |
